Converted amounts (≈) assume the structure as drawn. Read-outs that look alike come from different tables or passages of the source.
How the values were obtained:
[1] = system: Mycobacterium tuberculosis H37Rv; assay: In vitro assay for antimicrobial susceptibility (microplate Alamar blue, MIC); assay type: cell-based; details: Mycobacterium tuberculosis, read-out: MIC (μg/mL) against H37Rv
[2] = system: mitochondrial protein synthesis (MPS) in H9C2 cells; assay: In vitro assay for MPS inhibition (COX-1 / SDH-A ELISA in H9C2 cells); assay type: cell-based, rat; details: Rattus norvegicus, read-out: IC50 (μM) MPS inhibition
[3] = M. tuberculosis H37Rv, 7H9 broth, Alamar blue
[4] = 120 h, H9C2 cells, 5 days incubation

| Compound | MIC ([1]; H37RV) [µg/mL] | IC50 ([2]; H9c2, 120 h) [µM] | MIC [1, 3] [µg/mL] | IC50 [2, 4] [µM] |
| --- | --- | --- | --- | --- |
| CCCC(=O)NC[C@H]1CN(c2ccc(N3[C@@H]4CC[C@H]3C[S+]([O-])C4)c(F)c2)C(=O)O1 (stereo partly drawn) [OBD-017, N-(((5S)-3-(3-Fluoro-4-((1R,5S)-3-oxido-3-thia-8-azabicyclo[3.2.1]octan-8-yl)phenyl)-2-oxooxazolidin-5-yl)methyl)butyramide] | 5.8 to 6.3 (≈ 13.7 to 14.9 µM) | 41 | – | – |
| CCCC(=O)NC[C@H]1CN(c2cc(F)c(N3C4CCC3CSC4)c(F)c2)C(=O)O1 [OBD-029, N—(((S)-3-(4-(3-thia-8-aza-bicyclo[3.2.1]octan-8-yl)-3,5-difluorophenyl)-2-oxooxazolidin-5-yl)methyl)butyramide] | 0.11 (≈ 0.259 µM) | > 100 | – | – |
| CC(=O)NC[C@H]1CN(c2cc(F)c(N3CC4CCC(C3)O4)c(F)c2)C(=O)O1 [OBD-048] | – | – | 0.39 (≈ 1.02 µM) | 5 |
| CC(=O)NC[C@H]1CN(c2cc(F)c(N3C4CCC3COC4)c(F)c2)C(=O)O1 [OBD-051] | 0.6 (≈ 1.57 µM) | 6 | – | – |
| COC(=O)NC[C@H]1CN(c2cc(F)c(N3C4CCC3COC4)c(F)c2)C(=O)O1 [OBD-052] | 0.95 (≈ 2.39 µM) | 13 | – | – |
| O=C1OC(Cn2ccnn2)CN1c1cc(F)c(N2CC3CCC(C2)O3)c(F)c1 (stereo not shown) [OBD-054, 5-((1H-1,2,3-triazol-1-yl)methyl)-3-(4-(8-oxa-3-aza-bicyclo[3.2.1]octan-3-yl)-3,5-difluorophenyl)oxazolidin-2-one] | – | – | 0.5 (≈ 1.28 µM) | 6 to 31 |
| O=C1O[C@@H](Cn2ccnn2)CN1c1cc(F)c(N2C3CCC2COC3)c(F)c1 [OBD-055, (5R)-5-((1H-1,2,3-triazol-1-yl)methyl)-3-(4-(3-oxa-8-aza-bicyclo[3.2.1]octan-8-yl)-3,5-difluorophenyl)oxazolidin-2-one] | 1.3 (≈ 3.32 µM) | 15 | – | – |
| O=C1O[C@@H](CNc2ccon2)CN1c1ccc(N2CC3(COC3)C2)c(F)c1 [OBD-056] | – | – | 1.9 (≈ 5.08 µM) | 17 |
| NC[C@H]1CN(c2ccc(N3CC4(COC4)C3)c(F)c2)C(=O)O1 [OBD-057] | – | – | 0.4 (≈ 1.3 µM) | 67 |
| O=C1O[C@@H](CNc2ccon2)CN1c1cc(F)c(N2CC3(COC3)C2)c(F)c1 [OBD-061] | – | – | 0.8 (≈ 2.04 µM) | 29 |
| NC[C@H]1CN(c2ccc(N3C4CCC3CSC4)c(F)c2)C(=O)O1 [OBD-081, (5S)-3-(4-(3-thia-8-aza-bicyclo[3.2.1]octan-8-yl)-3-fluorophenyl)-5-(aminomethyl)oxazolidin-2-one] | 0.47 (≈ 1.39 µM) | 77 | – | – |
| NC[C@H]1CN(c2cc(F)c(N3C4CCC3CSC4)c(F)c2)C(=O)O1 [OBD-083, (5S)-3-(4-(3-thia-8-aza-bicyclo[3.2.1]octan-8-yl)-3,5-difluorophenyl)-5-(aminomethyl)oxazolidin-2-one] | 0.05 (≈ 0.141 µM) | 20 | – | – |
| NC[C@H]1CN(c2ccc(N3C4CCC3C[S+]([O-])C4)c(F)c2)C(=O)O1 (stereo partly shown) [OBD-085] | 1.1 (≈ 3.11 µM) | > 100 | – | – |
| NC[C@H]1CN(c2cc(F)c(N3C4CCC3C[S+]([O-])C4)c(F)c2)C(=O)O1 (stereo partly shown) [OBD-087] | 0.86 (≈ 2.32 µM) | > 100 | – | – |
| CC(=O)NC[C@H]1CN(c2ccc(N3CC4CCC(C3)O4)c(F)c2)C(=O)O1 [OBD-110] | – | – | 0.45 (≈ 1.24 µM) | 7 |
| COC(=O)NC[C@H]1CN(c2ccc(N3CC4CCC(C3)O4)c(F)c2)C(=O)O1 [OBD-111] | – | – | 0.49 (≈ 1.29 µM) | 7 |
| O=C1O[C@@H](CO)CN1c1ccc(N2CC3CCC(C2)O3)c(F)c1 [OBD-112, 3-(4-(8-oxa-3-aza-bicyclo[3.2.1]octan-3-yl)-3-fluorophenyl)-5-(hydroxymethyl)oxazolidin-2-one] | – | – | 3.5 (≈ 10.9 µM) | > 100 |
| NC[C@H]1CN(c2ccc(N3CC4CCC(C3)O4)c(F)c2)C(=O)O1 [OBD-113, 3-(4-(8-oxa-3-aza-bicyclo[3.2.1]octan-3-yl)-3-fluorophenyl)-5-(aminomethyl)oxazolidin-2-one] | – | – | 0.39 (≈ 1.21 µM) | > 100 |
| O=C1O[C@@H](CO)CN1c1cc(F)c(N2CC3CCC(C2)O3)c(F)c1 [OBD-114, 3-(4-(8-oxa-3-aza-bicyclo[3.2.1]octan-3-yl)-3,5-difluorophenyl)-5-(hydroxymethyl)oxazolidin-2-one] | – | – | 1.7 (≈ 5 µM) | > 100 |
| CCCC(=O)NC[C@H]1CN(c2cc(F)c(N3C4CCC3C[S+]([O-])C4)c(F)c2)C(=O)O1 (stereo partly shown) [OBD-242] | 0.61 (≈ 1.38 µM) | > 100 | – | – |
| O=C(NC[C@H]1CN(c2cc(F)c(N3CC4CCC(C3)O4)c(F)c2)C(=O)O1)C1CC1 [OBD-252] | – | – | 0.47 (≈ 1.15 µM) | 32.3 |

| Compound | MIC ([1]; H37RV) [µg/mL] | IC50 ([2]; H9c2, 120 h) [µM] | MIC [1, 3] [µg/mL] | IC50 [2, 4] [µM] |
| --- | --- | --- | --- | --- |
| O=C(NC[C@H]1CN(c2cc(F)c(N3CC4CCC(C3)O4)c(F)c2)C(=O)O1)C1CCC1 [OBD-253] | – | – | 0.53 (≈ 1.26 µM) | 65 |
| CCCC(=O)NC[C@H]1CN(c2cc(F)c(N3CC4CCC(C3)O4)c(F)c2)C(=O)O1 [OBD-254] | – | – | 0.73 (≈ 1.78 µM) | 36 |
| O=C1O[C@@H](Cn2nccn2)CN1c1ccc(N2CCCSCC2)c(F)c1 [OTB-106, (R)-5-[(2H-1,2,3-Triazol-2-yl)methyl]-3-[3-fluoro-4-(1,4-thiazepan-4-yl)phenyl]oxazolidin-2-one] | – | – | 2 (≈ 5.3 µM) | > 100 |
| O=C1O[C@@H](Cn2ccnn2)CN1c1ccc(N2CCCSCC2)c(F)c1 [OTB-107, (R)-5-[(1H-1,2,3-Triazol-1-yl)methyl]-3-[3-fluoro-4-(1,4-thiazepan-4-yl)phenyl]oxazolidin-2-one] | – | – | 0.03 (≈ 0.0795 µM) | 84.9 |
| CCCC(=O)OC[C@H]1CN(c2ccc(N3CCCSCC3)c(F)c2)C(=O)O1 [OTB-108, (R)-[3-[3-Fluoro-4-(1,4-thiazepan-4-yl)phenyl]-2-oxo-5-oxazolidinyl]methyl butyrate] | – | – | 0.125 (≈ 0.315 µM) | > 100 |
| CCCC(=O)OC[C@H]1CN(c2ccc(N3CCCSCCC3)c(F)c2)C(=O)O1 [OTB-110, (R)-[3-[3-Fluoro-4-(1,5-thiazocan-5-yl)phenyl]-2-oxo-5-oxazolidinyl]methyl butyrate] | – | – | 0.125 (≈ 0.304 µM) | > 100 |
| O=C(NC[C@H]1CN(c2ccc(N3CCCSCC3)c(F)c2)C(=O)O1)c1ccco1 [OTB-111, (S)—N-[(3-[3-Fluoro-4-(1,4-thiazepan-4-yl)phenyl]-2-oxo-oxazolidin-5-yl)methyl]furan-2-carboxamide] | – | – | 0.125 (≈ 0.298 µM) | 60.3 |
| O=C(NC[C@H]1CN(c2ccc(N3CCCSCC3)c(F)c2)C(=O)O1)c1cccs1 [OTB-112, (S)—N-[(3-[3-Fluoro-4-(1,4-thiazepan-4-yl)phenyl]-2-oxo-oxazolidin-5-yl)methyl]thiophene-2-carboxamide] | – | – | 0.5 (≈ 1.15 µM) | > 100 |
| O=C1O[C@@H](Cn2nccn2)CN1c1ccc(N2CCCSCCC2)c(F)c1 [OTB-113, (R)-5-[(2H-1,2,3-triazol-2-yl)methyl]-3-[3-fluoro-4-(1,5-thiazocan-5-yl)phenyl]oxazolidin-2-one] | – | – | 2 (≈ 5.11 µM) | > 100 |
| CC(=O)NC[C@H]1CN(c2ccc(N3CCCSCCC3)c(F)c2)C(=O)O1 [OTB-114, (S)—N-((3-(3-fluoro-4-(1,5-thiazocan-5-yl)phenyl)-2-oxooxazolidin-5-yl)methyl)acetamide] | – | – | 0.05 to 0.11 (≈ 0.131 to 0.288 µM) | 28 to 29 |
| CC(C)(C)C(=O)NC[C@H]1CN(c2ccc(N3CCCSCC3)c(F)c2)C(=O)O1 [OTB-115, (S)—N-[[3-(3-Fluoro-4-(1,4-thiazepan-4-yl)phenyl)-2-oxo-oxazolidin-5-yl]methyl]pivalamide] | – | – | 3.73 (≈ 9.12 µM) | > 100 |
| CCCCS(=O)(=O)NC[C@H]1CN(c2ccc(N3CCCSCC3)c(F)c2)C(=O)O1 [OTB-116, (R)—N-[[3-(3-Fluoro-4-(1,4-thiazepan-4-yl)phenyl)-2-oxo-oxazolidin-5-yl]methyl]butane-1-sulfonamide] | – | – | 3.81 (≈ 8.56 µM) | > 100 |
| O=C(NC[C@H]1CN(c2ccc(N3CCCSCCC3)c(F)c2)C(=O)O1)c1ccco1 [OTB-117, (S)—N-[[3-(3-Fluoro-4-(1,5-thiazocan-5-yl)phenyl)-2-oxo-oxazolidin-5-yl]methyl]furan-2-carboxamide] | – | – | 0.665 (≈ 1.53 µM) | 56.3 |
| O=C1O[C@@H](Cn2cncn2)CN1c1ccc(N2CCCSCC2)c(F)c1 [OTB-119, (R)-5-[(1H-1,2,4-Triazol-1-yl)methyl]-3-[3-fluoro-4-(1,4-thiazepan-4-yl)phenyl]oxazolidin-2-one] | – | – | 0.456 (≈ 1.21 µM) | > 100 |
| CCCCS(=O)(=O)NC[C@H]1CN(c2ccc(N3CCCSCCC3)c(F)c2)C(=O)O1 [OTB-120, (R)—N-[[3-(3-Fluoro-4-(1,5-thiazocan-5-yl)phenyl)-2-oxo-oxazolidin-5-yl]methyl]butane-1-sulfonamide] | – | – | 3.88 (≈ 8.44 µM) | 7.27 |
| CC(C)(C)C(=O)NC[C@H]1CN(c2ccc(N3CCCSCCC3)c(F)c2)C(=O)O1 [OTB-121, (S)—N-[[3-(3-Fluoro-4-(1,5-thiazocan-5-yl)phenyl)-2-oxo-oxazolidin-5-yl]methyl]pivalamide] | – | – | 2.79 (≈ 6.58 µM) | 17.6 |
| CCCC(=O)OC[C@H]1CN(c2ccc(N3CCC[S+]([O-])CC3)c(F)c2)C(=O)O1 (stereo partly drawn) [OTB-126, [(5R)-3-[3-Fluoro-4-(1-oxido-1,4-thiazepan-4-yl)phenyl)-2-oxo-oxazolidin-5-yl]methyl butyrate] | – | – | 0.847 (≈ 2.05 µM) | 35.6 |
| O=C(NC[C@H]1CN(c2ccc(N3CCC[S+]([O-])CC3)c(F)c2)C(=O)O1)c1ccco1 (stereo partly drawn) [OTB-127, N-[[(5S)-3-(3-Fluoro-4-(1-oxido-1,4-thiazepan-4-yl)phenyl)-2-oxo-oxazolidin-5-yl]methyl]furan-2-carboxamide] | – | – | 1.23 (≈ 2.83 µM) | 10.2 |
| O=C1O[C@@H](Cn2ccnn2)CN1c1ccc(N2CCC[S+]([O-])CC2)c(F)c1 (stereo partly drawn) [OTB-137, (5R)-5-((1H-1,2,3-Triazol-1-yl)methyl)-3-(3-fluoro-4-(1-oxido-1,4-thiazepan-4-yl)phenyl)oxazolidin-2-one] | – | – | 0.277 (≈ 0.704 µM) | 7.64 |
| O=C1O[C@@H](Cn2nccn2)CN1c1ccc(N2CCC[S+]([O-])CC2)c(F)c1 (stereo partly drawn) [OTB-138, (5R)-5-((2H-1,2,3-Triazol-2-yl)methyl)-3-(3-fluoro-4-(1-oxido-1,4-thiazepan-4-yl)phenyl)oxazolidin-2-one] | – | – | 7.57 (≈ 19.2 µM) | > 100 |
